Where a name gives a salt, the structure may show the parent alone.
What was measured:
Assay type in all cases: biochemical
[1] = target: T1, recombinant human VAP-1 (Homo sapiens, UniProt Q16853); test: Activity evaluation on recombinant human VAP-1 (Amplex Red/HRP-coupled hydrogen peroxide assay, benzylamine substrate); settings: recombinant human VAP-1, benzylamine substrate; read-out: Inhibitory Activity (IC50, nM) human VAP-1
T1 construct: purchased R&D systems
T1 sequence (Q16853 1-763): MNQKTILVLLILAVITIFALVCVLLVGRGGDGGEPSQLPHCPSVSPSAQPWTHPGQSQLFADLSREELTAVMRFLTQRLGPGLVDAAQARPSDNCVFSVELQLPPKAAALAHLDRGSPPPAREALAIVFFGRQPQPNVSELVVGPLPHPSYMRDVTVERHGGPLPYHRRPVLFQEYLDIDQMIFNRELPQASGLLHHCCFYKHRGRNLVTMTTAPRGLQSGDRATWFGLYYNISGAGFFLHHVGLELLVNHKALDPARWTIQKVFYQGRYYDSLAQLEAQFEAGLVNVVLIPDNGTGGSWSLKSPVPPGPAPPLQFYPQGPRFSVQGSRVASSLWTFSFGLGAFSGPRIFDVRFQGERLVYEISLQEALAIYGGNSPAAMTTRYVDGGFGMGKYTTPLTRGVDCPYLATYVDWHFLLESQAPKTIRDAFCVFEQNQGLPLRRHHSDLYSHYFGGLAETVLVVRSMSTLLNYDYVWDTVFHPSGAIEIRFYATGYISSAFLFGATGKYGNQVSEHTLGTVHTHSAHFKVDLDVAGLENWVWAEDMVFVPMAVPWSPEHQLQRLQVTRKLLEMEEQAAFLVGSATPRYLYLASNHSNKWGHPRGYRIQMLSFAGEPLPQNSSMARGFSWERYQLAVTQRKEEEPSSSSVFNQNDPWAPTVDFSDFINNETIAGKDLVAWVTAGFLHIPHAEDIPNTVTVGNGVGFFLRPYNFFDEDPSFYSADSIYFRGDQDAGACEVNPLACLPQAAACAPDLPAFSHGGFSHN
Outline: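 Recombinant human VAP-1 in 50 mM sodium phosphate pH 7.4 preincubated 30 min at 37 °C with compound (8-point 1:3 series, <1% DMSO), then 1 mM benzylamine, 200 uM Amplex Red, 1 U/mL HRP added. H2O2-derived resorufin fluorescence (ex 544/em 590) followed 1–2 h; IC50 from four-parameter fit of rate inhibition.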

[2] = target: T2, recombinant human MAO-A (monoamine oxidase-A) (Homo sapiens, UniProt P21397); test: Activity evaluation on recombinant human MAO-A (Amplex Red/HRP-coupled assay, 0.5 mM tyramine substrate); settings: 0.5 mM tyramine substrate, read-out: Inhibitory Activity (IC50, nM) MAO-A
T2 construct: purchased Sigma-Aldrich
T2 sequence (P21397 1-527): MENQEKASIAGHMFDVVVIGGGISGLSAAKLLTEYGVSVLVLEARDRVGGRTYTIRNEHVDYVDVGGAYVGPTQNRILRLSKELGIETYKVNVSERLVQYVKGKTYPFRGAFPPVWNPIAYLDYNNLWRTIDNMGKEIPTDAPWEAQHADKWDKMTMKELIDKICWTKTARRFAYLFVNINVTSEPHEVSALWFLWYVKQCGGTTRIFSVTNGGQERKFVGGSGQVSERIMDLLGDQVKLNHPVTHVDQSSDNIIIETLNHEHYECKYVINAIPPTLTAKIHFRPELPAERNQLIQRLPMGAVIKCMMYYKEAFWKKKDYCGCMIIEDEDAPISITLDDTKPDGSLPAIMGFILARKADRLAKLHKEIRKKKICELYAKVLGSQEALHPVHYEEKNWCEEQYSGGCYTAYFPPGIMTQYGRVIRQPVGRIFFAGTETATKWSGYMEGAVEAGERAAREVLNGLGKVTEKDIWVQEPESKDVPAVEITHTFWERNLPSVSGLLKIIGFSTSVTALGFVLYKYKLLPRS
Outline: (§1)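 Enzyme was preincubated with compounds (8-point 1:3 series, final DMSO <1%) 30 min at 37 °C in 50 mM sodium phosphate pH 7.4, then given 200 uM Amplex Red and 1 U/mL HRP with substrate. H2O2-derived resorufin fluorescence (ex 544/em 590 nm) was followed over 1–2 h; IC50 came from 4-parameter logistic fits of signal-rate inhibition versus DMSO control.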

[3] = target: T3, recombinant human MAO-B (monoamine oxidase-B) (Homo sapiens, UniProt P27338); test: Activity evaluation on recombinant human MAO-B (Amplex Red/HRP-coupled assay, 1 mM benzylamine substrate); settings: 1 mM benzylamine substrate, read-out: Inhibitory Activity (IC50, nM) MAO-B
T3 construct: purchased Sigma-Aldrich
T3 sequence (P27338 1-520): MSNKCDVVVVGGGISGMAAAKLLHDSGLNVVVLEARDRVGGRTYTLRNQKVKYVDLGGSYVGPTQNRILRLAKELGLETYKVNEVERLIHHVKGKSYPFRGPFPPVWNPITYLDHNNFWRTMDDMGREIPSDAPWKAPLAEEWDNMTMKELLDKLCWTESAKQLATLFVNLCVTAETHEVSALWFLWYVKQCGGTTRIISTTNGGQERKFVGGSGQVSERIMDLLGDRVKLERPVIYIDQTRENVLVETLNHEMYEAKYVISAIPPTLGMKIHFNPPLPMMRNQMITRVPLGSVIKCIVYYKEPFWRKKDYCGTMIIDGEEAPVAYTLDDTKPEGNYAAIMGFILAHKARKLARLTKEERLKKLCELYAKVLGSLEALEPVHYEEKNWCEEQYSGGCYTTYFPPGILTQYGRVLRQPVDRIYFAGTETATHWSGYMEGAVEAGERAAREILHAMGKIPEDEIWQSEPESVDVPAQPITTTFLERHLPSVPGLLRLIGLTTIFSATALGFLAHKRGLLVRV
Outline: as §1

[4] = target: T4, recombinant human DAO (diamine oxidase) (Homo sapiens, UniProt P19801); test: Activity evaluation on recombinant human DAO (Amplex Red/HRP-coupled assay, 1 mM putrescine substrate); settings: 1 mM putrescine substrate, read-out: Inhibitory Activity (IC50, nM) DAO
T4 construct: purchased R&D systems
T4 sequence (P19801 20-751): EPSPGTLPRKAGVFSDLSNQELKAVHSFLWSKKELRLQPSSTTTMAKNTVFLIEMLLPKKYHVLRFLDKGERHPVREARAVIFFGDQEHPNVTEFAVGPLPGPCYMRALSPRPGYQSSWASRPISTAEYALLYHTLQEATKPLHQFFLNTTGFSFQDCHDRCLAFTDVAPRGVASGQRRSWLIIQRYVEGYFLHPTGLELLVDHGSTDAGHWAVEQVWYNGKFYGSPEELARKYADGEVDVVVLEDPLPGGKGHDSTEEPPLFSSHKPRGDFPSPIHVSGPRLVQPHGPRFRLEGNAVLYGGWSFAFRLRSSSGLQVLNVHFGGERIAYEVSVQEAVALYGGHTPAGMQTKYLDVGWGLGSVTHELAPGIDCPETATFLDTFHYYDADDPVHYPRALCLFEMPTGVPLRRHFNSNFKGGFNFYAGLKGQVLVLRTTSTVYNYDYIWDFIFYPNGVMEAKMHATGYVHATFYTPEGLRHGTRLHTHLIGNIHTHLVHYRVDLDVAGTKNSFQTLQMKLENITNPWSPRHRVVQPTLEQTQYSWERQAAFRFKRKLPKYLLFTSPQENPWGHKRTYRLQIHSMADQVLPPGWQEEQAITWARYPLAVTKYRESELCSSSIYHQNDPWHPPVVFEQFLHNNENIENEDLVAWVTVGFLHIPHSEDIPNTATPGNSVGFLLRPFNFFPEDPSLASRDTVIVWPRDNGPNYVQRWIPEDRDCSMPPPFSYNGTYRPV
Outline: as §1

IC50 [1] [nM] | IC50 [2] [nM] | IC50 [3] [nM] | IC50 [4] [nM] | SMILES
0.7 | > 100000 | 12100 | 13900 | CCn1cc(-c2cccc(-c3ccc(Cn4cnn(CC(CN)=C(F)F)c4=O)s3)c2)cn1 [Example 287, 2-[2-(aminomethyl)-3,3-difluoro-allyl]-4-[[5-[3-(1-ethylpyrazol-4-yl)phenyl]-2-thienyl]methyl]-1,2,4-triazol-3-one Trifluoroacetate]
2.6 | 2910 | 3230 | 3780 | CCn1cc(-c2ccc(-c3csc(Cn4cnn(CC(CN)=C(F)F)c4=O)c3)cc2)cn1 [Example 288, 2-[2-(aminomethyl)-3,3-difluoro-allyl]-4-[[4-[4-(1-ethylpyrazol-4-yl)phenyl]-2-thienyl]methyl]-1,2,4-triazol-3-one Trifluoroacetate]
0.6 | > 100000 | 12000 | 14500 | CCn1cc(-c2cccc(-c3csc(Cn4cnn(CC(CN)=C(F)F)c4=O)c3)c2)cn1 [Example 289, 2-[2-(aminomethyl)-3,3-difluoro-allyl]-4-[[4-[3-(1-ethylpyrazol-4-yl)phenyl]-2-thienyl]methyl]-1,2,4-triazol-3-one Trifluoroacetate]
0.7 | > 100000 | 1190 | 2380 | CCn1cc(-c2ccc(-c3cnc(-n4cnn(CC(CN)=C(F)F)c4=O)c(C)c3)cc2)cn1 [Example 290, 2-[2-(aminomethyl)-3,3-difluoro-allyl]-4-[5-[4-(1-ethylpyrazol-4-yl)phenyl]-3-methyl-2-pyridyl]-1,2,4-triazol-3-one Trifluoroacetate]
0.6 | > 100000 | 3450 | 6160 | CCn1cc(-c2cccc(-c3cnc(-n4cnn(CC(CN)=C(F)F)c4=O)c(C)c3)c2)cn1 [Example 291, 2-[2-(aminomethyl)-3,3-difluoro-allyl]-4-[5-[3-(1-ethylpyrazol-4-yl)phenyl]-3-methyl-2-pyridyl]-1,2,4-triazol-3-one Trifluoroacetate]
2.7 | 86200 | > 100000 | > 100000 | NCC(Cn1ncn(Cc2ccc(-c3cn[nH]c3)s2)c1=O)=C(F)F [Example 292, 2-[2-(aminomethyl)-3,3-difluoro-allyl]-4-[[5-(1H-pyrazol-4-yl)-2-thienyl]methyl]-1,2,4-triazol-3-one Trifluoroacetate]
2.4 | > 100000 | > 100000 | 25300 | CS(=O)(=O)n1cc(-c2ccc(Cn3cnn(CC(CN)=C(F)F)c3=O)s2)cn1 [Example 293, 2-[2-(aminomethyl)-3,3-difluoro-allyl]-4-[[5-(1-methylsulfonylpyrazol-4-yl)-2-thienyl]methyl]-1,2,4-triazol-3-one Trifluoroacetate]
2.9 | > 100000 | > 100000 | 5380 | NCC(Cn1ncn(Cc2ccc(-c3cnn(S(=O)(=O)C4CC4)c3)s2)c1=O)=C(F)F [Example 294, 2-[2-(aminomethyl)-3,3-difluoro-allyl]-4-[[5-(1-cyclopropylsulfonylpyrazol-4-yl)-2-thienyl]methyl]-1,2,4-triazol-3-one Trifluoroacetate]
0.3 | > 100000 | > 100000 | > 100000 | NCC(Cn1ncn(Cc2ccc(-c3cnn(CC4CC4)c3)s2)c1=O)=C(F)F [Example 295, 2-[2-(aminomethyl)-3,3-difluoro-allyl]-4-[[5-[1-(cyclopropylmethyl)pyrazol-4-yl]-2-thienyl]methyl]-1,2,4-triazol-3-one Trifluoroacetate]
1 | > 100000 | > 100000 | > 100000 | Cn1cc(-c2ccc(Cn3cnn(CC(CN)=C(F)F)c3=O)s2)cn1 [Example 296, 2-[2-(aminomethyl)-3,3-difluoro-allyl]-4-[[5-(1-methylpyrazol-4-yl)-2-thienyl]methyl]-1,2,4-triazol-3-one Trifluoroacetate]
1.9 | > 100000 | > 100000 | 14800 | NCC(Cn1ncn(Cc2ccc(-c3cnn(Cc4ccccc4)c3)s2)c1=O)=C(F)F [Example 297, 2-[2-(aminomethyl)-3,3-difluoro-allyl]-4-[[5-(1-benzylpyrazol-4-yl)-2-thienyl]methyl]-1,2,4-triazol-3-one Trifluoroacetate]
12 | > 100000 | > 100000 | 0.2 | NCC(Cn1ncn(Cc2sc(-c3ccc(N4CCNCC4)cc3)cc2F)c1=O)=C(F)F [Example 298, 2-[2-(aminomethyl)-3,3-difluoro-allyl]-4-[[3-fluoro-5-(4-piperazin-1-ylphenyl)-2-thienyl]methyl]-1,2,4-triazol-3-one ditrifluoroacetate]
1.4 | > 100000 | > 100000 | 9680 | CCn1cc(-c2cc(F)c(Cn3cnn(CC(CN)=C(F)F)c3=O)s2)ccc1=O [Example 299, 5-[5-[[1-[2-(aminomethyl)-3,3-difluoro-allyl]-5-oxo-1,2,4-triazol-4-yl]methyl]-4-fluoro-2-thienyl]-1-ethyl-pyridin-2-one Trifluoroacetate]
